Test: Reversal of multidrug resistance in human MCF7-DOX cells measured for 48 hrs by MTT assay
Format: functional, cell-based
`C/C=C(\C)C(=O)O[C@H]1[C@@H](OC(C)=O)[C@H](OC(C)=O)[C@H](OC(=O)/C(C)=C/C)[C@@H](OC(=O)/C(=C/C)CO)[C@@H]1OC(=O)/C(=C/C)CO` showed an IC50 of 3.4 µM.
Work on `C/C=C(\C)C(=O)O[C@H]1[C@H](OC(=O)/C(C)=C/C)[C@@H](OC(=O)/C(C)=C/C)[C@@H](O)[C@H](O)[C@@H]1OC(=O)/C(C)=C/C` yielded an IC50 of 4 µM.
With `C/C=C(\C)C(=O)O[C@@H]1[C@H](O)[C@@H](OC(=O)/C(C)=C/C)[C@H](OC(=O)/C(C)=C/C)[C@@H](OC(=O)/C(C)=C/C)[C@H]1O` the IC50 was 6.5 µM.
For `COc1cccc2c1C(=O)c1c(O)c3c(c(O)c1C2=O)C[C@@](O)(C(=O)CO)C[C@@H]3O[C@H]1C[C@H](N)[C@H](O)[C@H](C)O1` [DOXORUBICIN], the IC50 was 22.4 µM.
For `COc1ccc(CCN(C)CCCC(C#N)(c2ccc(OC)c(OC)c2)C(C)C)cc1OC` (stereo not given) [VERAPAMIL], the IC50 was 2.1 µM.

From ChEMBL document CHEMBL5257077, “d-chiro-Inositol Derivatives with Multidrug Resistance Reversal Activities from the Fruits of Chisocheton siamensis” (J Nat Prod, 2023)
